This passage reports relative viability results from the supplement of paper PMC10307832.

What all share (assay): relative viability (nuclei count vs DMSO), 5 days (fraction); higher = more cells survive
Compound in the assay “Kobe2602 + Palbociclib”: C1=CC(=CC=C1NC(=S)NNC2=C(C=C(C=C2[N+](=O)[O-])C(F)(F)F)[N+](=O)[O-])F [Kobe2602] + CC(=O)c1c(C)c2cnc(Nc3ccc(N4CCNCC4)cn3)nc2n(C2CCCC2)c1=O [Palbociclib] (partner 0.5 µM)
An outline of the steps:
(§1)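 Relative viability is defined as nuclei in treated wells over nuclei in vehicle wells. Duplicate plates were run and medians reported. Lung cancer cell lines in 1536-well plates were dosed by pin tool one day after seeding, with one drug or with a fixed anchor-drug dose plus five library-drug doses (not always all listed) in √10 steps, and nuclei were counted after 5 days.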

Compound in the assay “Kobe2602 + Bortezomib”: C1=CC(=CC=C1NC(=S)NNC2=C(C=C(C=C2[N+](=O)[O-])C(F)(F)F)[N+](=O)[O-])F [Kobe2602] + CC(C)C[C@H](NC(=O)[C@H](Cc1ccccc1)NC(=O)c1cnccn1)B(O)O [Bortezomib] (partner 0.002 µM)
An outline of the steps:
as §1

Compound in assay [1]: COc1cc2nccc(Oc3ccc(NC(=O)C4(C(=O)Nc5ccc(F)cc5)CC4)cc3)c2cc1OC [Cabozantinib] + C[C@]1(O)C[C@@H](c2nc(-c3ccc4ccc(-c5ccccc5)nc4c3)c3c(N)nccn32)C1 [Linsitinib] (partner 1 µM)
The procedure, abridged:
as §1

Compound in the assay “Zosuquidar + OSI-027”: O[C@@H](COc1cccc2ncccc12)CN1CCN([C@@H]2c3ccccc3[C@@H]3[C@H](c4ccccc42)C3(F)F)CC1 [Zosuquidar] + COc1cccc2cc(-c3nc([C@H]4CC[C@H](C(=O)O)CC4)n4ncnc(N)c34)[nH]c12 [OSI-027] (partner 0.5 µM)
An outline of the steps:
as §1

With NCI-H2405, the relative viability turned out to be 0.52 with Kobe2602 + Palbociclib (first compound 0.2 µM); 0.572 with Kobe2602 + Palbociclib (first compound 0.6325 µM); 0.537 in the assay with Kobe2602 + Palbociclib (first compound 2 µM); 0.553 in the assay with Kobe2602 + Palbociclib (first compound 6.325 µM); 0.528 in the assay with Kobe2602 + Palbociclib (first compound 20 µM); 1.05 in the assay with Kobe2602 + Bortezomib (first compound 0.2 µM). The relative viability with Kobe2602 + Bortezomib (first compound 0.6325 µM) is 0.999; with Kobe2602 + Bortezomib (first compound 2 µM), 0.936; with Kobe2602 + Bortezomib (first compound 6.325 µM), 0.968; with Kobe2602 + Bortezomib (first compound 20 µM), 0.999; in assay [1] (first compound 0.06325 µM), 1.14; in assay [1] (first compound 0.2 µM), 0.905. For the same cell line, the relative viability was 0.908 in assay [1] (first compound 0.6325 µM); 0.852 in assay [1] (first compound 2 µM); 0.67 in the assay with Zosuquidar + OSI-027 (first compound 0.01 µM); 0.656 with Zosuquidar + OSI-027 (first compound 0.03162 µM); 0.503 with Zosuquidar + OSI-027 (first compound 0.1 µM); 0.713 in the assay with Zosuquidar + OSI-027 (first compound 0.3162 µM). Moreover, in the assay with Zosuquidar + OSI-027 (first compound 1 µM), the relative viability worked out at 0.631.

Regarding NCI-H3122, the relative viability stood at 0.184 with Kobe2602 + Palbociclib (first compound 0.2 µM); 0.169 with Kobe2602 + Palbociclib (first compound 0.6325 µM); 0.194 with Kobe2602 + Palbociclib (first compound 2 µM); 0.201 in the assay with Kobe2602 + Palbociclib (first compound 6.325 µM); 0.212 with Kobe2602 + Palbociclib (first compound 20 µM); 1.09 in the assay with Kobe2602 + Bortezomib (first compound 0.2 µM). The relative viability with Kobe2602 + Bortezomib (first compound 0.6325 µM) is 0.96; with Kobe2602 + Bortezomib (first compound 2 µM), 0.93; with Kobe2602 + Bortezomib (first compound 6.325 µM) it was 1.04; with Kobe2602 + Bortezomib (first compound 20 µM), 1.08; in assay [1] (first compound 0.02 µM), 1.01; in assay [1] (first compound 0.06325 µM) it was 1.03. The relative viability amounted to 1.08 in assay [1] (first compound 0.2 µM); 0.949 in assay [1] (first compound 0.6325 µM); 1 in assay [1] (first compound 2 µM); 0.921 with Zosuquidar + OSI-027 (first compound 0.01 µM); 1.03 in the assay with Zosuquidar + OSI-027 (first compound 0.03162 µM); 1.36 with Zosuquidar + OSI-027 (first compound 0.3162 µM). In the assay with Zosuquidar + OSI-027 (first compound 1 µM), the relative viability was 0.936.

Turning to PC-3 [JPC-3], the relative viability with Kobe2602 + Palbociclib (first compound 0.2 µM) turned out to be 0.587; with Kobe2602 + Palbociclib (first compound 0.6325 µM), 0.524; with Kobe2602 + Palbociclib (first compound 2 µM), 0.561; with Kobe2602 + Palbociclib (first compound 6.325 µM), 0.482; with Kobe2602 + Palbociclib (first compound 20 µM), 0.501; with Kobe2602 + Bortezomib (first compound 0.2 µM), 0.905. For the same cell line, the relative viability with Kobe2602 + Bortezomib (first compound 0.6325 µM) was 0.812; with Kobe2602 + Bortezomib (first compound 2 µM), 0.766; in the assay with Kobe2602 + Bortezomib (first compound 6.325 µM), 0.871; in the assay with Kobe2602 + Bortezomib (first compound 20 µM), 0.795; in assay [1] (first compound 0.02 µM) it was 0.971; in assay [1] (first compound 0.06325 µM) it was 0.993. The relative viability amounted to 1 in assay [1] (first compound 0.6325 µM); 0.902 in assay [1] (first compound 2 µM); 0.738 with Zosuquidar + OSI-027 (first compound 0.01 µM); 0.787 with Zosuquidar + OSI-027 (first compound 0.03162 µM); 0.562 with Zosuquidar + OSI-027 (first compound 0.1 µM); 0.789 in the assay with Zosuquidar + OSI-027 (first compound 0.3162 µM). Moreover, the relative viability with Zosuquidar + OSI-027 (first compound 1 µM) was determined as 0.796.

Consider PC-14, for which the relative viability was determined as 0.502 in the assay with Kobe2602 + Palbociclib (first compound 0.2 µM); 0.51 in the assay with Kobe2602 + Palbociclib (first compound 0.6325 µM); 0.539 with Kobe2602 + Palbociclib (first compound 2 µM); 0.455 in the assay with Kobe2602 + Palbociclib (first compound 6.325 µM); 0.32 in the assay with Kobe2602 + Palbociclib (first compound 20 µM); 0.814 with Kobe2602 + Bortezomib (first compound 0.2 µM). Moreover, the relative viability with Kobe2602 + Bortezomib (first compound 0.6325 µM) turned out to be 0.848; with Kobe2602 + Bortezomib (first compound 2 µM), 0.818; with Kobe2602 + Bortezomib (first compound 6.325 µM) it was 0.837; with Kobe2602 + Bortezomib (first compound 20 µM), 0.859; in assay [1] (first compound 0.02 µM) it was 1.09; in assay [1] (first compound 0.06325 µM), 1. The relative viability amounted to 0.961 in assay [1] (first compound 0.6325 µM); 0.927 in assay [1] (first compound 2 µM); 0.903 with Zosuquidar + OSI-027 (first compound 0.01 µM); 0.714 with Zosuquidar + OSI-027 (first compound 0.03162 µM); 0.826 with Zosuquidar + OSI-027 (first compound 0.1 µM); 1.02 with Zosuquidar + OSI-027 (first compound 0.3162 µM). The relative viability in the assay with Zosuquidar + OSI-027 (first compound 1 µM) was 0.78.

RERF-LC-KJ: the relative viability with Kobe2602 + Palbociclib (first compound 0.2 µM) turned out to be 0.994; with Kobe2602 + Palbociclib (first compound 0.6325 µM), 1.02; with Kobe2602 + Palbociclib (first compound 2 µM), 0.992; with Kobe2602 + Palbociclib (first compound 6.325 µM) it was 0.939; with Kobe2602 + Palbociclib (first compound 20 µM), 0.728; with Kobe2602 + Bortezomib (first compound 0.2 µM) it was 1.11. For the same cell line, the relative viability with Kobe2602 + Bortezomib (first compound 0.6325 µM) was determined as 1.15; with Kobe2602 + Bortezomib (first compound 2 µM), 1.15; with Kobe2602 + Bortezomib (first compound 6.325 µM), 1.15; with Kobe2602 + Bortezomib (first compound 20 µM), 1.15; in assay [1] (first compound 0.02 µM), 0.909; in assay [1] (first compound 0.06325 µM), 0.885. The relative viability in assay [1] (first compound 0.2 µM) was determined as 0.813; in assay [1] (first compound 0.6325 µM), 0.883; in assay [1] (first compound 2 µM), 0.875; in the assay with Zosuquidar + OSI-027 (first compound 0.01 µM), 0.543; with Zosuquidar + OSI-027 (first compound 0.03162 µM) it was 0.565; in the assay with Zosuquidar + OSI-027 (first compound 0.1 µM), 0.634. The relative viability with Zosuquidar + OSI-027 (first compound 0.3162 µM) turned out to be 0.691; with Zosuquidar + OSI-027 (first compound 1 µM) it was 0.623.

Regarding SK-LU-1, the relative viability in the assay with Kobe2602 + Palbociclib (first compound 0.2 µM) came to 0.396; with Kobe2602 + Palbociclib (first compound 0.6325 µM), 0.402; in the assay with Kobe2602 + Palbociclib (first compound 2 µM) it was 0.338; in the assay with Kobe2602 + Palbociclib (first compound 6.325 µM), 0.428; with Kobe2602 + Palbociclib (first compound 20 µM) it was 0.459; with Kobe2602 + Bortezomib (first compound 0.2 µM), 1.38. The relative viability with Kobe2602 + Bortezomib (first compound 0.6325 µM) stood at 1.55; with Kobe2602 + Bortezomib (first compound 2 µM) it was 1.18; in the assay with Kobe2602 + Bortezomib (first compound 6.325 µM), 1.37; in the assay with Kobe2602 + Bortezomib (first compound 20 µM), 1.61; in assay [1] (first compound 0.06325 µM), 1.34; in assay [1] (first compound 0.2 µM), 1.08. Besides, the relative viability in assay [1] (first compound 0.6325 µM) worked out at 1.34; in assay [1] (first compound 2 µM), 0.823; with Zosuquidar + OSI-027 (first compound 0.01 µM), 0.369; with Zosuquidar + OSI-027 (first compound 0.03162 µM) it was 0.35; with Zosuquidar + OSI-027 (first compound 0.1 µM) it was 0.401; in the assay with Zosuquidar + OSI-027 (first compound 0.3162 µM), 0.432. Also, the relative viability in the assay with Zosuquidar + OSI-027 (first compound 1 µM) came to 0.33.

Turning to SW 1573, the relative viability was 0.405 with Kobe2602 + Palbociclib (first compound 0.2 µM); 0.477 with Kobe2602 + Palbociclib (first compound 0.6325 µM); 0.375 with Kobe2602 + Palbociclib (first compound 2 µM); 0.358 with Kobe2602 + Palbociclib (first compound 6.325 µM); 0.281 with Kobe2602 + Palbociclib (first compound 20 µM); 1.21 with Kobe2602 + Bortezomib (first compound 0.2 µM). Also, the relative viability with Kobe2602 + Bortezomib (first compound 0.6325 µM) is 0.967; in the assay with Kobe2602 + Bortezomib (first compound 2 µM), 1.06; with Kobe2602 + Bortezomib (first compound 6.325 µM) it was 0.945; with Kobe2602 + Bortezomib (first compound 20 µM), 1.18; in assay [1] (first compound 0.02 µM), 0.702; in assay [1] (first compound 0.06325 µM), 0.799. For the same cell line, the relative viability in assay [1] (first compound 0.2 µM) was 0.842; in assay [1] (first compound 0.6325 µM) it was 0.604; in assay [1] (first compound 2 µM) it was 0.63; in the assay with Zosuquidar + OSI-027 (first compound 0.01 µM), 0.624; in the assay with Zosuquidar + OSI-027 (first compound 0.03162 µM), 0.609; with Zosuquidar + OSI-027 (first compound 0.1 µM), 0.81. The relative viability was 1 with Zosuquidar + OSI-027 (first compound 0.3162 µM) and 0.689 with Zosuquidar + OSI-027 (first compound 1 µM).
